Test results published in PubChem BioAssay AID330 (DTP/NCI, 2004).
Values joined by “and” are separate entries in the source; they are usually repeats but may differ in a detail not shown here. Equal entries are not always repeated. Toxic doses and inconclusive results are not listed.

System: P388 leukemia ip, CD2F1 mice, survival T/C
Assay: NCI In Vivo Anticancer Drug Screen. Data for tumor model P388 Leukemia (intraperitoneal) in CD2F1 (CDF1) mice
Settings: endpoint: median survival time, higher = longer survival
In short: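 Mice carrying the transplanted tumor received test compound or vehicle. Survival was recorded in each group, and the value is the treated-group measurement divided by that of the vehicle-treated control group.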

[1] = dose: 50.0 mg/kg/injection, schedule: Q01DX009 (ip), vehicle: Klucel (hydroxypropylcellulose) (HPC)
[2] = dose: 100.0 mg/kg/injection, schedule: Q01DX009 (ip), vehicle: Klucel (hydroxypropylcellulose) (HPC)
[3] = dose: 200.0 mg/kg/injection, schedule: Q01DX009 (ip), vehicle: Klucel (hydroxypropylcellulose) (HPC)
[4] = dose: 50.0 mg/kg/injection, schedule: Q01DX009 (ip), vehicle: saline with Tween-80
[5] = dose: 100.0 mg/kg/injection, schedule: Q01DX009 (ip), vehicle: saline with Tween-80
[6] = dose: 200.0 mg/kg/injection, schedule: Q01DX009 (ip), vehicle: saline with Tween-80

COc1ccc(C2SCC(=O)N2c2nnc(C(F)(F)F)s2)c(OC)c1OC (centres undefined)
T/C (dose: 100.0 mg/kg/injection, schedule: Q04DX002 (ip), vehicle: saline with Tween-80): 100 % of control | T/C (dose: 200.0 mg/kg/injection, schedule: Q04DX002 (ip), vehicle: saline with Tween-80): 90 % of control | T/C (dose: 400.0 mg/kg/injection, schedule: Q04DX002 (ip), vehicle: saline with Tween-80): 93 % of control

Cc1nnc(Cc2ccco2)c2n[nH]c(C)c12
T/C [1]: 96 % of control | T/C [2]: 99 % of control | T/C [3]: 100 % of control

Cc1[nH]c(=O)[nH]c(=O)c1CO
T/C [4]: 100 % of control | T/C [5]: 102 % of control | T/C [6]: 101 % of control | T/C (dose: 400.0 mg/kg/injection, schedule: Q01DX009 (ip), vehicle: saline with Tween-80): 100 % of control

CC(C)(S)[C@H]1NC(=O)NC1=O
T/C (dose: 50.0 mg/kg/injection, schedule: Q01DX005 (ip), vehicle: Klucel (hydroxypropylcellulose) (HPC)): 99 % of control | T/C (dose: 100.0 mg/kg/injection, schedule: Q01DX005 (ip), vehicle: Klucel (hydroxypropylcellulose) (HPC)): 99 % of control | T/C (dose: 200.0 mg/kg/injection, schedule: Q01DX005 (ip), vehicle: Klucel (hydroxypropylcellulose) (HPC)): 103 % of control

COc1ccc(C(=O)CC2(O)C(=O)Nc3ccccc32)cc1 (centres undefined)
T/C [1]: 100 % of control | T/C [2]: 102 % of control | T/C [3]: 100 % of control

CSc1nc(SC)c2cnn(COCCO)c2n1
T/C (dose: 50.0 mg/kg/injection, schedule: Q01DX005 (ip), vehicle: saline with Tween-80): 92 % of control | T/C (dose: 100.0 mg/kg/injection, schedule: Q01DX005 (ip), vehicle: saline with Tween-80): 92 % of control | T/C (dose: 200.0 mg/kg/injection, schedule: Q01DX005 (ip), vehicle: saline with Tween-80): 92 % of control

COc1c(-c2ccccc2)c(=O)n2c3cc(C)c(C)cc3n(C)c2c1C#N
T/C (dose: 60.0 mg/kg/injection, schedule: Q01DX005 (ip), vehicle: saline with Tween-80): 100 % of control | T/C (dose: 120.0 mg/kg/injection, schedule: Q01DX005 (ip), vehicle: saline with Tween-80): 86 % of control | T/C (dose: 240.0 mg/kg/injection, schedule: Q01DX005 (ip), vehicle: saline with Tween-80): 89 % of control

CNC(=O)OCc1c(COC(=O)NC)c(-c2ccc(S(C)(=O)=O)cc2)n(C)c1C
T/C (dose: 12.5 mg/kg/injection, schedule: Q01DX009 (ip), vehicle: distilled water + Tween-80): 111 % of control | T/C (dose: 50.0 mg/kg/injection, schedule: Q01DX009 (ip), vehicle: distilled water + Tween-80): 162 % of control | T/C (dose: 100.0 mg/kg/injection, schedule: Q01DX009 (ip), vehicle: distilled water + Tween-80): 161 % of control and 180 % of control | T/C (dose: 200.0 mg/kg/injection, schedule: Q01DX009 (ip), vehicle: distilled water + Tween-80): 198 % of control

COC(=O)C1(C)C(OC(C)=O)CC2C3C(CC4CC(OC(C)=O)CCC42C)OC(=O)CC31 (centres undefined)
T/C (dose: 0.25 mg/kg/injection, schedule: Q01DX009 (ip), vehicle: distilled water + Tween-80): 99 % of control | T/C (dose: 0.5 mg/kg/injection, schedule: Q01DX009 (ip), vehicle: distilled water + Tween-80): 101 % of control | T/C (dose: 1.0 mg/kg/injection, schedule: Q01DX009 (ip), vehicle: distilled water + Tween-80): 102 % of control | T/C (dose: 2.0 mg/kg/injection, schedule: Q01DX009 (ip), vehicle: distilled water + Tween-80): 104 % of control | T/C (dose: 4.0 mg/kg/injection, schedule: Q01DX009 (ip), vehicle: distilled water + Tween-80): 100 % of control and 104 % of control | T/C (dose: 8.0 mg/kg/injection, schedule: Q01DX009 (ip), vehicle: distilled water + Tween-80): 106 % of control and 111 % of control | T/C (dose: 16.0 mg/kg/injection, schedule: Q01DX009 (ip), vehicle: distilled water + Tween-80): 94 % of control | T/C (dose: 32.0 mg/kg/injection, schedule: Q01DX009 (ip), vehicle: distilled water + Tween-80): 87 % of control | T/C (dose: 64.0 mg/kg/injection, schedule: Q01DX009 (ip), vehicle: distilled water + Tween-80): 100 % of control

Nc1ccc(/C=C/c2ccc3cccnc3c2)cc1
T/C (dose: 12.5 mg/kg/injection, schedule: Q01DX009 (ip), vehicle: DMSO): 108 % of control | T/C (dose: 25.0 mg/kg/injection, schedule: Q01DX009 (ip), vehicle: DMSO): 97 % of control | T/C (dose: 50.0 mg/kg/injection, schedule: Q01DX009 (ip), vehicle: DMSO): 101 % of control

CC(=O)N1CN=C2Sc3ccccc3N2C1
T/C (dose: 15.0 mg/kg/injection, schedule: Q01DX005 (ip), vehicle: Klucel (hydroxypropylcellulose) (HPC)): 103 % of control | T/C (dose: 30.0 mg/kg/injection, schedule: Q01DX005 (ip), vehicle: Klucel (hydroxypropylcellulose) (HPC)): 105 % of control | T/C (dose: 60.0 mg/kg/injection, schedule: Q01DX005 (ip), vehicle: Klucel (hydroxypropylcellulose) (HPC)): 100 % of control and 104 % of control

CCC1(O)CC2CN(CCc3c([nH]c4ccccc34)C(C(=O)OC)(c3cc4c(cc3OC)N(C)C3C(O)(C(=O)NCCSSCCNC(=O)C5(O)C(O)C6(CC)C=CCN7CCC8(c9cc(C%10(C(=O)OC)CC%11CN(CCc%12c%10[nH]c%10ccccc%12%10)CC(O)(CC)C%11)c(OC)cc9N(C)C58)C76)C(O)C5(CC)C=CCN6CCC43C65)C2)C1 (centres undefined)
T/C (dose: 0.1 mg/kg/injection, schedule: Q01DX009 (ip), vehicle: saline): 166 % of control | T/C (dose: 0.19 mg/kg/injection, schedule: Q04DX003 (ip), vehicle: saline): 151 % of control | T/C (dose: 0.2 mg/kg/injection, schedule: Q01DX009 (ip), vehicle: saline): 202 % of control | T/C (dose: 0.31 mg/kg/injection, schedule: Q04DX003 (ip), vehicle: saline): 170 % of control | T/C (dose: 0.38 mg/kg/injection, schedule: Q04DX003 (ip), vehicle: saline): 183 % of control | T/C (dose: 0.39 mg/kg/injection, schedule: Q04DX003 (ip), vehicle: saline): 186 % of control | T/C (dose: 0.4 mg/kg/injection, schedule: Q01DX009 (ip), vehicle: saline): 227 % of control | T/C (dose: 0.63 mg/kg/injection, schedule: Q04DX003 (ip), vehicle: saline): 190 % of control | T/C (dose: 0.7 mg/kg/injection, schedule: Q04DX003 (ip), vehicle: saline): 161 % of control | T/C (dose: 0.75 mg/kg/injection, schedule: Q04DX003 (ip), vehicle: saline): 209 % of control and 228 % of control | T/C (dose: 1.0 mg/kg/injection, schedule: Q04DX003 (ip), vehicle: saline): 212 % of control | T/C (dose: 1.25 mg/kg/injection, schedule: Q04DX003 (ip), vehicle: saline): 208 % of control | T/C (dose: 1.6 mg/kg/injection, schedule: Q04DX003 (ip), vehicle: saline): 231 % of control | T/C (dose: 2.4 mg/kg/injection, schedule: Q04DX003 (ip), vehicle: saline): 119 % of control | T/C (dose: 2.5 mg/kg/injection, schedule: Q04DX003 (ip), vehicle: saline): 236 % of control

CN1NC(C2NN(C)C(=O)N(C)N2)NN(C)C1=O
T/C (dose: 50.0 mg/kg/injection, schedule: Q01DX005 (ip), vehicle: saline): 102 % of control | T/C (dose: 100.0 mg/kg/injection, schedule: Q01DX005 (ip), vehicle: saline): 102 % of control | T/C (dose: 200.0 mg/kg/injection, schedule: Q01DX005 (ip), vehicle: saline): 107 % of control

BrC1CCCCC(Br)C12OCCO2 (centres undefined)
T/C (dose: 100.0 mg/kg/injection, schedule: Q04DX003 (ip), vehicle: saline): 107 % of control | T/C (dose: 200.0 mg/kg/injection, schedule: Q04DX003 (ip), vehicle: saline): 104 % of control | T/C (dose: 400.0 mg/kg/injection, schedule: Q04DX003 (ip), vehicle: saline): 106 % of control

O=C1C=C2COC(O)CC2CC1 (centres undefined)
T/C (dose: 100.0 mg/kg/injection, schedule: Q04DX003 (ip), vehicle: Klucel (hydroxypropylcellulose) (HPC)): 104 % of control | T/C (dose: 200.0 mg/kg/injection, schedule: Q04DX003 (ip), vehicle: Klucel (hydroxypropylcellulose) (HPC)): 105 % of control | T/C (dose: 400.0 mg/kg/injection, schedule: Q04DX003 (ip), vehicle: Klucel (hydroxypropylcellulose) (HPC)): 111 % of control

CC(C)(C)OC(=O)NC(Cc1cn(Cc2ccccc2)cn1)C(=O)O (centres undefined)
T/C [4]: 96 % of control | T/C [5]: 89 % of control | T/C [6]: 108 % of control

CC(NC(=S)Nc1ccccc1)c1ccccc1 (centres undefined)
T/C (dose: 25.0 mg/kg/injection, schedule: Q04DX002 (ip), vehicle: Klucel (hydroxypropylcellulose) (HPC)): 100 % of control | T/C (dose: 50.0 mg/kg/injection, schedule: Q04DX002 (ip), vehicle: Klucel (hydroxypropylcellulose) (HPC)): 100 % of control | T/C (dose: 100.0 mg/kg/injection, schedule: Q04DX002 (ip), vehicle: Klucel (hydroxypropylcellulose) (HPC)): 96 % of control

CN(C)C(=O)NC1(N(C)C)CC1
T/C (dose: 25.0 mg/kg/injection, schedule: Q01DX009 (ip), vehicle: saline): 104 % of control | T/C (dose: 50.0 mg/kg/injection, schedule: Q01DX009 (ip), vehicle: saline): 100 % of control | T/C (dose: 100.0 mg/kg/injection, schedule: Q01DX009 (ip), vehicle: saline): 97 % of control
